Assay results taken from patent US11325899B2, “Benzofurane and benzothiophene derivatives as PGE2 receptor modulators” (IDORSIA PHARMACEUTICALS LTD, priority 2017, dated 2022).

Key:
Type in all cases: cell-based
PTGER2 (EP2) = target: T1, PTGER2 (EP2) (Homo sapiens, UniProt P43116); assay: hEP2 b-arrestin assay (PathHunter HEK 293 PTGER2 b-arrestin cells); conditions: antagonistic activity, beta-arrestin assay; read-out: hEP2 b-arr IC50
T1 construct: host or cells: HEK 293 (PathHunter PTGER2 b-arrestin cell line)
How it was run: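 PathHunter HEK293 cells with ProLink-tagged EP2 and EA-β-arrestin 2 preincubated 15 min at 37 °C with compound (10 μM-2 nM or 1 μM-0.2 nM), then stimulated 120 min with 5 μM PGE2 (EC80). β-gal complementation read by chemiluminescence; IC50 from duplicate dose-response versus DMSO.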

EP4 receptor = target: T2, EP4 receptor (Homo sapiens, UniProt P35408); assay: hEP4 cAMP assay (BT549 breast cancer cells, HTRF cAMP, PGE2 stimulation); conditions: antagonistic activity, PGE2 6 nM (EC80)
T2 construct: BT549 breast cancer cells, express high endogenous EP4 levels and very low EP2 levels; host or cells: BT549 breast cancer cells
How it was run: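 BT549 cells, with endogenous EP4 and very low EP2, were preincubated 45 min at room temperature with compound in HBSS/HEPES/BSA buffer with 2 mM IBMX. They were then stimulated 30 min with 6 nM PGE2 (EC80). cAMP was measured by HTRF competitive immunoassay against a calibrator; IC50 from duplicate dose-response as % of DMSO control.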

PTGER4 (EP4) = target: T3, PTGER4 (EP4) (Homo sapiens, UniProt P35408); assay: hEP4 b-arrestin assay (PathHunter HEK 293 PTGER4 b-arrestin cells); conditions: antagonistic activity, beta-arrestin assay; read-out: hEP4 b-arr IC50
T3 construct: host or cells: HEK 293 (PathHunter PTGER4 b-arrestin cell line)
How it was run: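 PathHunter HEK 293 cells expressing ProLink-tagged human EP4 and EA-β-arrestin 2, seeded 24 h before. Compounds (10 μM–2 nM or 1 μM–0.2 nM) preincubated 15 min at 37 °C, then 20 nM PGE2 (EC80) for 120 min at 37 °C. β-gal complementation luminescence read; IC50 from duplicate dose-response curves versus DMSO control.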

T3 sequence (P35408 whole entry): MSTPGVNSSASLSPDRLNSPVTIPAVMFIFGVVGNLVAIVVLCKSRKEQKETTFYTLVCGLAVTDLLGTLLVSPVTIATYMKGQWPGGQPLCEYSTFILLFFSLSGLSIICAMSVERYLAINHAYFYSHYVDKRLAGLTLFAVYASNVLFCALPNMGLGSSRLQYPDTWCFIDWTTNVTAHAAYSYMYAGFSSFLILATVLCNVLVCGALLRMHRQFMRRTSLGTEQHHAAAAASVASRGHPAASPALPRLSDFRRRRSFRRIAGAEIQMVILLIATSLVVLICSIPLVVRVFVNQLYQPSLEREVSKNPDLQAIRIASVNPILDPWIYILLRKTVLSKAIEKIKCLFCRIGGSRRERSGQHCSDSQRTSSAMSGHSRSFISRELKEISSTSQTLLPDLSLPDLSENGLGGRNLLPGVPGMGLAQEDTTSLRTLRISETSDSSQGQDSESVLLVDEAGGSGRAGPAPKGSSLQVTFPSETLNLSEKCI
T2 sequence (P35408 whole entry): as above
T1 sequence (P43116 whole entry): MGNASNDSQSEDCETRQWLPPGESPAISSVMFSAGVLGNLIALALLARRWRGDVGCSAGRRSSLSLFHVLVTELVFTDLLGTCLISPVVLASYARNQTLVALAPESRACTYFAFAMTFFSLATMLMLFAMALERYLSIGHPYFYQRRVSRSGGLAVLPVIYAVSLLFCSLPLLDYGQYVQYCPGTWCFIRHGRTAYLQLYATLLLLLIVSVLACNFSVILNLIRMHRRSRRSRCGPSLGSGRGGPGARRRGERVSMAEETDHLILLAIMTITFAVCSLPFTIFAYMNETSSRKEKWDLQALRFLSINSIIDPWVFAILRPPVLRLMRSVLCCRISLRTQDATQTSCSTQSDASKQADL

| Compound | IC50 (PTGER2 (EP2)) [nM] | IC50 (EP4 receptor) [nM] | IC50 (PTGER4 (EP4)) [nM] |
| --- | --- | --- | --- |
| CCc1oc2c(C)cc(F)cc2c1CCNc1cc(-c2ccc(C(=O)O)c(SC)c2)ncn1 [Example 22, 4-{6-[2-(2-Ethyl-5-fluoro-7-methyl-benzofuran-3-yl)-ethylamino]-pyrimidin-4-yl}-2-methylsulfanyl-benzoic acid] | 101 | 661 | 493 |
| Cc1sc2c(C)cc(F)cc2c1CCNc1cc(-c2ccc(CC(=O)O)c(OC3CC3)c2)ncn1 [Example 196, (2-Cyclopropoxy-4-{6-[2-(5-fluoro-2,7-dimethyl-benzo[b]thiophen-3-yl)-ethylamino]-pyrimidin-4-yl}-phenyl)-acetic acid] | 16 | 100 | 99 |
| CSc1cc(-c2cc(NCCc3c(C)sc4c(Cl)ccc(Cl)c34)ncn2)ccc1C(=O)O [Example 20, 4-{6-[2-(4,7-Dichloro-2-methyl-benzo[b]thiophen-3-yl)-ethylamino]-pyrimidin-4-yl}-2-methylsulfanyl-benzoic acid] | 30 | 532 | 762 |
| CCOc1cc(-c2cc(NCCc3c(C)sc4c(Cl)ccc(Cl)c34)ncn2)ccc1C(=O)O [Example 63, 4-{6-[2-(4,7-Dichloro-2-methyl-benzo[b]thiophen-3-yl)-ethylamino]-pyrimidin-4-yl}-2-ethoxy-benzoic acid] | 27 | 445 | 461 |
| CCOc1cc(-c2cc(NCCc3c(C)sc4c(C)cc(F)cc34)ncn2)ccc1-c1cc(O)no1 [Example 202, 5-(2-Ethoxy-4-{6-[2-(5-fluoro-2,7-dimethyl-benzo[b]thiophen-3-yl)-ethylamino]-pyrimidin-4-yl}-phenyl)-isoxazol-3-ol [tautomeric form: 5-(2-ethoxy-4-(6-((2-(5-fluoro-2,7-dimethylbenzo[b]thiophen-3-yl)ethyl)amino)pyrimidin-4-yl)phenyl)isoxazol-3(2H)-one]] | 17 | 297 | 100 |
| CCOc1cc(-c2cc(NCCc3c(C)sc4c(C)ccc(F)c34)ncn2)ccc1C(=O)O [Example 61, 2-Ethoxy-4-{6-[2-(4-fluoro-2,7-dimethyl-benzo[b]thiophen-3-yl)-ethylamino]-pyrimidin-4-yl}-benzoic acid] | 22 | 356 | 245 |
| CCOc1cc(-c2cc(NCCc3csc4ccccc34)ncn2)sc1C(=O)O [Example 33, 5-[6-(2-Benzo[b]thiophen-3-yl-ethylamino)-pyrimidin-4-yl]-3-ethoxy-thiophene-2-carboxylic acid] | 19 | 18 | 168 |
| CCOc1cc(-c2cc(NCCc3c(C)sc4c(OC)ccc(Cl)c34)ncn2)ccc1C(=O)O [Example 57, 4-{6-[2-(4-Chloro-7-methoxy-2-methyl-benzo[b]thiophen-3-yl)-ethylamino]-pyrimidin-4-yl}-2-ethoxy-benzoic acid] | 17 | 220 | 287 |
| CCOc1cc(-c2cc(NCCc3c(C)sc4c(Cl)cc(F)cc34)ncn2)ccc1C(=O)O [Example 65, 4-{6-[2-(7-Chloro-5-fluoro-2-methyl-benzo[b]thiophen-3-yl)-ethylamino]-pyrimidin-4-yl}-2-ethoxy-benzoic acid] | 16 | 565 | 428 |
| CSc1cc(-c2cc(NCCc3c(C)sc4c(C)cccc34)ncn2)cc(Cl)c1C(=O)O [Example 50, 2-Chloro-4-{6-[2-(2,7-dimethyl-benzo[b]thiophen-3-yl)-ethylamino]-pyrimidin-4-yl}-6-methylsulfanyl-benzoic acid] | 18 | 605 | 432 |
| Cc1cc(-c2cc(NCCc3c(C)sc4c(C)cccc34)ncn2)sc1C(=O)O [Example 3, 5-{6-[2-(2,7-Dimethyl-benzo[b]thiophen-3-yl)-ethylamino]-pyrimidin-4-yl}-3-methyl-thiophene-2-carboxylic acid] | 18 | 222 | 202 |

Stronger by IC50 (PTGER2 (EP2)), values ahead:

| IC50 (PTGER2 (EP2)) [nM] | IC50 (EP4 receptor) [nM] | IC50 (PTGER4 (EP4)) [nM] | Compound |
| --- | --- | --- | --- |
| 14 | 714 | 659 | CCOc1cc(-c2cc(NCCc3c(C)oc4c(Cl)cccc34)ncn2)ccc1C(=O)O [Example 68, 4-{6-[2-(7-Chloro-2-methyl-benzofuran-3-yl)-ethylamino]-pyrimidin-4-yl}-2-ethoxy-benzoic acid] |
| 12 | 393 | 499 | CCOc1cc(-c2cc(NCCc3c(C)sc4c(C)c(F)ccc34)ncn2)ccc1C(=O)O [Example 62, 2-Ethoxy-4-{6-[2-(6-fluoro-2,7-dimethyl-benzo[b]thiophen-3-yl)-ethylamino]-pyrimidin-4-yl}-benzoic acid] |
| 11 | 338 | 247 | Cc1sc2c(C)cccc2c1CCNc1cc(-c2ccc(C(=O)O)c(SC(C)C)c2)ncn1 [Example 90, 4-{6-[2-(2,7-Dimethyl-benzo[b]thiophen-3-yl)-ethylamino]-pyrimidin-4-yl}-2-isopropylsulfanyl-benzoic acid] |
| 11 | 13 | 27 | CCOc1cc(-c2cc(NCCc3c(C)oc4c(OC)cc(F)c(F)c34)ncn2)sc1C(=O)O [Example 31, 5-{6-[2-(4,5-Difluoro-7-methoxy-2-methyl-benzofuran-3-yl)-ethylamino]-pyrimidin-4-yl}-3-ethoxy-thiophene-2-carboxylic acid] |
| 9 | 667 | 488 | CSc1cc(-c2cc(NCCc3c(C)sc4c(Cl)cc(F)cc34)ncn2)ccc1C(=O)O [Example 23, 4-{6-[2-(7-Chloro-5-fluoro-2-methyl-benzo[b]thiophen-3-yl)-ethylamino]-pyrimidin-4-yl}-2-methylsulfanyl-benzoic acid] |
| 7 | 344 | 372 | CCOc1cc(-c2cc(NCCc3c(C)sc4c(C)cccc34)ncn2)ccc1C(=O)O [Example 60, 4-{6-[2-(2,7-Dimethyl-benzo[b]thiophen-3-yl)-ethylamino]-pyrimidin-4-yl}-2-ethoxy-benzoic acid] |
| 6 | 672 | 816 | Cc1oc2ccccc2c1CCNc1cc(-c2ccc(C(=O)O)c(SC(C)C)c2)ncn1 [Example 92, 2-Isopropylsulfanyl-4-{6-[2-(2-methyl-benzofuran-3-yl)-ethylamino]-pyrimidin-4-yl}-benzoic acid] |
| 6 | 130 | 1310 | Cc1sc2c(C)cccc2c1CCNc1cc(-c2ccc3cc(C(=O)O)oc3c2)ncn1 [Example 77, 6-{6-[2-(2,7-Dimethyl-benzo[b]thiophen-3-yl)-ethylamino]-pyrimidin-4-yl}-benzofuran-2-carboxylic acid] |
| 5 | 243 | 248 | CSc1cc(-c2cc(NCCc3c(C)sc4c(C)cc(F)cc34)ncn2)ccc1C(=O)O [Example 17, 4-{6-[2-(5-Fluoro-2,7-dimethyl-benzo[b]thiophen-3-yl)-ethylamino]-pyrimidin-4-yl}-2-methylsulfanyl-benzoic acid] |
| 5 | 451 | 318 | CCCSc1cc(-c2cc(NCCc3c(C)sc4c(C)cccc34)ncn2)ccc1C(=O)O [Example 87, 4-{6-[2-(2,7-Dimethyl-benzo[b]thiophen-3-yl)-ethylamino]-pyrimidin-4-yl}-2-propylsulfanyl-benzoic acid] |
| 4 | 105 | 195 | CSc1cc(-c2cc(NCCc3c(C)sc4c(C)cccc34)ncn2)ccc1C(=O)O [Example 14, 4-{6-[2-(2,7-Dimethyl-benzo[b]thiophen-3-yl)-ethylamino]-pyrimidin-4-yl}-2-methylsulfanyl-benzoic acid] |
| 3 | 36 | 35 | CCOc1cc(-c2cc(NCCc3c(C)oc4c(Cl)cccc34)ncn2)sc1C(=O)O [Example 35, 5-{6-[2-(7-Chloro-2-methyl-benzofuran-3-yl)-ethylamino]-pyrimidin-4-yl}-3-ethoxy-thiophene-2-carboxylic acid] |
| 2 | 5 | 5 | CCOc1cc(-c2cc(NCCc3c(C)sc4c(OC)ccc(F)c34)ncn2)sc1C(=O)O [Example 28, 3-Ethoxy-5-{6-[2-(4-fluoro-7-methoxy-2-methyl-benzo[b]thiophen-3-yl)-ethylamino]-pyrimidin-4-yl}-thiophene-2-carboxylic acid] |
| 1 | 414 | 1200 | CSc1cc(-c2cc(NCCc3c(C)oc4ccccc34)ncn2)ccc1C(=O)O [Example 18, 4-{6-[2-(2-Methyl-benzofuran-3-yl)-ethylamino]-pyrimidin-4-yl}-2-methylsulfanyl-benzoic acid] |
| 1 | 44 | 26 | CCOc1cc(-c2cc(NCCc3c(C)sc4c(C)cccc34)ncn2)sc1C(=O)O [Example 36, 5-{6-[2-(2,7-Dimethyl-benzo[b]thiophen-3-yl)-ethylamino]-pyrimidin-4-yl}-3-ethoxy-thiophene-2-carboxylic acid] |
